One experiment has as its target T1, Recombinant NAMPT enzyme (Homo sapiens, UniProt P43490).
T1 construct: purchased MBL
Put plainly: Inhibition of NAMPT enzymatic activity. The format is biochemical. Particulars: 6 hours at 37° C., NMN product detected. As to the method:
Recombinant NAMPT enzyme (MBL) was briefly pre-incubated in the absence or presence of inhibitor followed by addition of nicotinamide. Enzymatic reaction was allowed to proceed for 6 hours at 37° C. Reaction was terminated and NMN reaction product detected using the method as described in: Zhang R Y, Qin Y, Lv X Q, Wang P, Xu T Y, Zhang L, Miao C Y., Anal. Biochem. 2011 May 1; 412(1):18-25.
(§1) The 50% inhibitory concentration (IC50) is the concentration at which 50% of the maximal activity was inhibited.

The next experiment concerns primary human B cells. Put plainly: Anti-proliferative activity on B cells (anti-IgM stimulated, CellTiterGlo). The format is cell-based. Particulars: B-cell, 72 h, anti-IgM 10 ug/ml. How it is done: Fresh primary human B cells obtained from Analytical Biological Services (Wilmington, Del.) were diluted to 1×10^^6 cells per ml in AIM-V medium (Invitrogen), and stimulated with anti-IgM (10 ug/ml) (KPL) in the absence or presence of inhibitor for 72 hours at 37° C./5% CO2 prior to viability determination using CellTiterGlo (Promega) per manufacturer's instruction.
as §1

The test system of the next experiment is primary human T cells. Kind of experiment: Anti-proliferative activity on T cells (CD3/CD28 stimulated, CellTiterGlo). The format is cell-based. Particulars: T-cell, 72 h, CD3/CD28 beads. As to the method: Fresh primary human T cells obtained from Analytical Biological Services (Wilmington, Del.) were diluted to 1×10^^6 cells per ml in AIM-V medium (Invitrogen), and stimulated with CD3/CD28 beads (Invitrogen) in the absence or presence of inhibitor for 72 hours at 37° C./5% CO2 prior to viability determination using CellTiterGlo (Promega) per manufacturer's instruction.
as §1
In general terms: ATP-based viability assays read luminescence as a measure of living cells.

The test system of experiment [1] is acute T-cell leukemia (JURKAT). Put plainly: Anti-proliferative activity on JURKAT cell line. The format is cell-based. Particulars: Homo sapiens, 72 h, CellTiterGlo. How it is done:
(§2) Leukemia/Lymphoma cell lines (ATCC) were diluted in vendor-recommended media and incubated in the absence or presence of inhibitor for 72 hours at 37° C./5% CO2 prior to viability determination using CellTiterGlo (Promega) per manufacturer's instruction. The human cell lines studied include acute T-cell leukemia (JURKAT), chronic myelogenous leukemia (K562), and B-cell acute lymphocytic leukemia (NALM6 and SUP-B15).

For experiment [2], the system named is chronic myelogenous leukemia (K562). Put plainly: Anti-proliferative activity on K562 cell line. The format is cell-based. Particulars: Homo sapiens, K562, 72 h, CellTiterGlo. As to the method:
as §2

For experiment [3], the system named is B-cell acute lymphocytic leukemia (NALM6). Put plainly: Anti-proliferative activity on NALM6 cell line. The format is cell-based. Particulars: Homo sapiens, NALM-6, 72 h, CellTiterGlo. How it is done:
as §2

Experiment [4] has as its system B-cell acute lymphocytic leukemia (SUP-B15). Kind of experiment: Anti-proliferative activity on SUP-B15 cell line. The format is cell-based. Particulars: Homo sapiens, SUP-B15, 72 h, CellTiterGlo. As to the method:
as §2

Molecules are shown by their SMILES.

The term IC50 denotes the concentration at which inhibition is half-maximal.

T1 sequence (P43490 whole entry): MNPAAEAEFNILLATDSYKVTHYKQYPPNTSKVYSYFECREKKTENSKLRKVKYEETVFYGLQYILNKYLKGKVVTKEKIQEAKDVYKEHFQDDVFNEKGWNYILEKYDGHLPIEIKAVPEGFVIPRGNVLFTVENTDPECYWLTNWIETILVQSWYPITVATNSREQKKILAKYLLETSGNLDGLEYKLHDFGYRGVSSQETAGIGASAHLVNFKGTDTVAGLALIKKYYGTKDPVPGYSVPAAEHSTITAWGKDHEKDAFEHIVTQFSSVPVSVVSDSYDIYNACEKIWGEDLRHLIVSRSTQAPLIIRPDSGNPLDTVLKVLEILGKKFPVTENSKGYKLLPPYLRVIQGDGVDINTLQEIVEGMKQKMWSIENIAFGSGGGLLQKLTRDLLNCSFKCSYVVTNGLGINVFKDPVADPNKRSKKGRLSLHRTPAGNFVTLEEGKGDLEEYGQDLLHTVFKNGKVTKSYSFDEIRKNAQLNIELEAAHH

On to `CC(C)N1CCC2(CC1)CC(=O)c1cc(-c3ccc(C(=O)NCc4cnn(C)c4)cn3)ccc1O2` [6-(1′-isopropyl-4-oxospiro[chroman-2,4′-piperidin]-6-yl)-N-((1-methyl-1H-pyrazol-4-yl)methyl)nicotinamide], for which the IC50 is 14 nM at Recombinant NAMPT enzyme; 59.8 nM in the experiment with primary human B cells; 5590 nM in the experiment with primary human T cells; 209 nM in experiment [1]; 304 nM in experiment [2]; 102 nM in experiment [3]. Besides, the IC50 in experiment [4] came out at 14.1 nM.

Consider `CCN1CCC2(CC1)CC(=O)c1cc(-c3ccc(C(=O)NCc4cncs4)cn3)ccc1O2` [6-(1′-ethyl-4-oxospiro[chroman-2,4′-piperidin]-6-yl)-N-(thiazol-5-ylmethyl)nicotinamide], for which the IC50 on Recombinant NAMPT enzyme was 271 nM; in the experiment with primary human B cells, 50.9 nM; in the experiment on primary human T cells it was 3360 nM; in experiment [1] it was 43.6 nM; in experiment [2] it was 180 nM; in experiment [3], 21.6 nM. This molecule also had an IC50 in experiment [4] of 5.15 nM.

Take `O=C(NCc1cncc(F)c1)c1ccc(-c2ccc3c(n2)C(=O)CC2(CCN(CC4CCC4)CC2)O3)cc1` [4-(1-(cyclobutylmethyl)-4′-oxo-3′,4′-dihydrospiro[piperidine-4,2′-pyrano[3,2-b]pyridin]-6′-yl)-N-((5-fluoropyridin-3-yl)methyl)benzamide]: the IC50 amounted to 66.4 nM on Recombinant NAMPT enzyme; 83 nM in the experiment with primary human B cells; 3990 nM in the experiment on primary human T cells; 154 nM in experiment [1]; 332 nM in experiment [2]; 48.9 nM in experiment [3]. For the same molecule, 7.29 nM corresponded to half-maximal inhibition in experiment [4] (IC50).

Turning to `CCCN1CCC2(CC1)CC(=O)c1cc(-c3ccc(C(=O)NCc4cc(C)no4)cn3)ccc1O2` [N-((3-methylisoxazol-5-yl)methyl)-6-(4-oxo-1′-propylspiro[chroman-2,4′-piperidin]-6-yl)nicotinamide], the IC50 at Recombinant NAMPT enzyme came to 1 nM; with primary human B cells, 5.9 nM; in the experiment with primary human T cells, 731 nM; in experiment [1] it was 3.54 nM; in experiment [2], 19.4 nM; in experiment [3] it was 2.25 nM. The molecule further came in with a half-maximal inhibitory concentration (IC50) in experiment [4] of 0.706 nM.

Regarding `CC(C)N1CCC2(CC1)CC(=O)c1cc(-c3ccc(C(=O)NCc4cccnc4F)cc3)ccc1O2` [N-((2-fluoropyridin-3-yl)methyl)-4-(1′-isopropyl-4-oxospiro[chroman-2,4′-piperidin]-6-yl)benzamide], the IC50 was determined as 1 nM at Recombinant NAMPT enzyme; 9.9 nM with primary human B cells; 5790 nM with primary human T cells; 3.66 nM in experiment [1]; 2.94 nM in experiment [2]; 3.48 nM in experiment [3]. Besides, the IC50 in experiment [4] turned out to be 1.47 nM.

`Cc1ccc(CNC(=O)c2ccc(-c3ccc4c(c3)C(=O)CC3(CCN(C(C)C)CC3)O4)c(F)c2)cn1` [3-fluoro-4-(1′-isopropyl-4-oxospiro[chroman-2,4′-piperidin]-6-yl)-N-((6-methylpyridin-3-yl)methyl)benzamide]: the 50% inhibitory concentration (IC50) turned out to be 2 nM at Recombinant NAMPT enzyme; 53.9 nM in the experiment with primary human B cells; 8510 nM with primary human T cells; 21.3 nM in experiment [1]; 1730 nM in experiment [2]; 10.7 nM in experiment [3]. In experiment [4], this molecule showed a concentration for half-maximal inhibition (IC50) of 2.22 nM.

Turning to `CC(C)N1CCC2(CC1)Oc1ccc(-c3ccc(C(=O)CCc4cncs4)cc3)cc1C(=O)N2C` [1′-isopropyl-3-methyl-6-(4-(3-(thiazol-5-yl)propanoyl)phenyl)spiro[benzo[e][1,3]oxazine-2,4′-piperidin]-4(3H)-one], the IC50 on Recombinant NAMPT enzyme worked out at 166 nM; in the experiment with primary human B cells, 40.8 nM; in the experiment with primary human T cells, 3190 nM; in experiment [1] it was 34.7 nM; in experiment [2] it was 112 nM; in experiment [3], 18.6 nM. The same molecule returned an IC50 in experiment [4] of 2.85 nM.

On to `Cc1cc(CNC(=O)c2ccc(-c3ccc4c(c3)C(=O)NC3(CCN(C(C)C)CC3)O4)nc2)on1` [6-(1′-isopropyl-4-oxo-3,4-dihydrospiro[benzo[e][1,3]oxazine-2,4′-piperidin]-6-yl)-N-((3-methylisoxazol-5-yl)methyl)nicotinamide], for which the IC50 on Recombinant NAMPT enzyme came out at 3 nM; in the experiment on primary human B cells, 29.2 nM; in the experiment with primary human T cells, 14600 nM; in experiment [1] it was 24.8 nM; in experiment [2] it was 876 nM; in experiment [3], 17.1 nM. The molecule further had a concentration for half-maximal inhibition (IC50) in experiment [4] of 3.19 nM.

Consider `COCCCN1CCC2(C=Cc3cc(-c4ccc(C(=O)NCc5cncs5)cn4)ccc3O2)CC1` [6-(1′-(3-methoxypropyl)spiro[chromene-2,4′-piperidin]-6-yl)-N-(thiazol-5-ylmethyl)nicotinamide], for which the half-inhibitory concentration (IC50) stood at 56.4 nM at Recombinant NAMPT enzyme; 45.5 nM with primary human B cells; 5790 nM in the experiment with primary human T cells; 85.8 nM in experiment [2]; 13.9 nM in experiment [3]; 1.7 nM in experiment [4].

With `CC(C)N1CCC2(CC1)Oc1ccc(-c3ccc(C(=O)NCc4cnn(C)c4)cn3)cc1C(=O)N2C` [6-(1′-isopropyl-3-methyl-4-oxo-3,4-dihydrospiro[benzo[e][1,3]oxazine-2,4′-piperidin]-6-yl)-N-((1-methyl-1H-pyrazol-4-yl)methyl)nicotinamide], the IC50 on Recombinant NAMPT enzyme was determined as 15 nM; in the experiment on primary human B cells, 97.7 nM; in the experiment with primary human T cells it was 6110 nM; in experiment [1], 181 nM; in experiment [2], 629 nM; in experiment [3], 122 nM. Inhibition in experiment [4] was half-maximal at 20.9 nM (IC50).

Take `CCCCN1CCC2(CC1)CC(=O)c1cc(-c3ccc(C(=O)NCc4cncs4)cn3)ccc1O2` [6-(1′-butyl-4-oxospiro[chroman-2,4′-piperidin]-6-yl)-N-(thiazol-5-ylmethyl)nicotinamide]: the half-inhibitory concentration (IC50) on Recombinant NAMPT enzyme turned out to be 29.9 nM; with primary human B cells, 24.8 nM; with primary human T cells, 1880 nM; in experiment [1] it was 8.85 nM; in experiment [2], 19.8 nM; in experiment [3], 5.73 nM. In experiment [4], this molecule returned a concentration for half-maximal inhibition (IC50) of 1.03 nM.

For `CC(C)N1CCC2(CC1)CC(=O)c1cc(-c3ccc(C(=O)NCc4cncc(F)c4)cc3)ccc1O2` [N-((5-fluoropyridin-3-yl)methyl)-4-(1′-isopropyl-4-oxospiro[chroman-2,4′-piperidin]-6-yl)benzamide], the half-inhibitory concentration (IC50) was 5.5 nM at Recombinant NAMPT enzyme; 7.9 nM in the experiment on primary human B cells; 3300 nM with primary human T cells; 20.4 nM in experiment [1]; 78.8 nM in experiment [2]; 8.8 nM in experiment [3]. The molecule further returned a 50% inhibitory concentration (IC50) in experiment [4] of 1.1 nM.

Consider `CCc1cc(CNC(=O)c2ccc(-c3ccc4c(c3)C(=O)CC3(CCN(C(C)C)CC3)O4)cc2)on1` [N-((3-ethylisoxazol-5-yl)methyl)-4-(1′-isopropyl-4-oxospiro[chroman-2,4′-piperidin]-6-yl)benzamide], for which the IC50 is 1 nM at Recombinant NAMPT enzyme; 21.3 nM in the experiment on primary human B cells; 1720 nM in the experiment on primary human T cells; 12.2 nM in experiment [1]; 44.7 nM in experiment [2]; 7.42 nM in experiment [3]. The IC50 in experiment [4] stood at 2.3 nM.

For the molecule `CCCN1CCC2(CC1)CC(=O)c1cc(-c3ccc(C(=O)NCc4cncs4)cn3)ccc1O2` [6-(4-oxo-1′-propylspiro[chroman-2,4′-piperidin]-6-yl)-N-(thiazol-5-ylmethyl)nicotinamide], the half-inhibitory concentration (IC50) at Recombinant NAMPT enzyme was 66.7 nM; with primary human B cells, 15.2 nM; with primary human T cells it was 1080 nM; in experiment [1] it was 16.3 nM; in experiment [2] it was 35.7 nM; in experiment [3], 11.9 nM. In experiment [4], this molecule came in with a half-maximal inhibitory concentration (IC50) of 1.89 nM.

Take `COCCCN1CCC2(CC1)CC(=O)c1cc(-c3ccc(C(=O)NCc4cncs4)cn3)ccc1O2` [6-(1′-(3-methoxypropyl)-4-oxospiro[chroman-2,4′-piperidin]-6-yl)-N-(thiazol-5-ylmethyl)nicotinamide]: the 50% inhibitory concentration (IC50) at Recombinant NAMPT enzyme was determined as 141 nM; with primary human B cells it was 43.8 nM; with primary human T cells, 3290 nM; in experiment [1] it was 19.6 nM; in experiment [2] it was 54.4 nM; in experiment [3] it was 9.38 nM. Half-maximal inhibition in experiment [4] (IC50) required 1.83 nM.

As to `Cc1ccc(CNC(=O)c2ccc(-c3ccc4c(c3)C(=O)N(C)C3(CCN(C(C)C)CC3)O4)cc2)cn1` [4-(1′-isopropyl-3-methyl-4-oxo-3,4-dihydrospiro[benzo[e][1,3]oxazine-2,4′-piperidin]-6-yl)-N-((6-methylpyridin-3-yl)methyl)benzamide], the 50% inhibitory concentration (IC50) is 2 nM at Recombinant NAMPT enzyme; 15.3 nM in the experiment with primary human B cells; 4620 nM in the experiment on primary human T cells; 7.67 nM in experiment [1]; 28.3 nM in experiment [2]; 5.26 nM in experiment [3]. In addition, in experiment [4], inhibition was half-maximal at 0.663 nM (IC50).

For the origin of these results see patent US10017523B2, “NAMPT inhibitors and methods” (Genzyme Corporation, priority 2014, dated 2018).
